In the kinase profiling compilation of Christmann-Franck et al. (2016):
Where “and” joins values, the source holds several entries; their conditions need not be identical. Identical values can stand only once.

Tests used:
Assay in all cases: radiometric filter-binding kinase assay, Kinase HotSpot
[1] = target: CDC42BPA (human) (UniProt Q5VT25); conditions: compound 0.5 µM; ATP 10 µM
[2] = target: MAP3K11 (human) (UniProt Q16584); conditions: compound 0.5 µM; ATP 10 µM
[3] = target: STK3 (human) (UniProt Q13188); conditions: compound 0.5 µM; ATP 10 µM
[4] = target: MELK (human) (UniProt Q14680); conditions: compound 0.5 µM; ATP 10 µM
[5] = target: PIM2 (human) (UniProt Q9P1W9); conditions: compound 0.5 µM; ATP 10 µM
[6] = target: CSNK2A1 (human) (UniProt P68400); conditions: compound 0.5 µM; ATP 10 µM
[7] = target: PRKCA (human) (UniProt P17252); conditions: compound 0.5 µM; ATP 10 µM
[8] = target: ABL1 (human) (UniProt P00519); conditions: compound 0.5 µM; ATP 10 µM
[9] = target: MST4 (human) (UniProt Q9P289); conditions: compound 0.5 µM; ATP 10 µM
[10] = target: PRKCG (human) (UniProt P05129); conditions: compound 0.5 µM; ATP 10 µM
[11] = target: FYN (human) (UniProt P06241); conditions: compound 0.5 µM; ATP 10 µM
[12] = target: DSTYK (human) (UniProt Q6XUX3); conditions: compound 0.5 µM; ATP 10 µM
Sequence of DSTYK (human) (Q6XUX3 whole entry, looked up): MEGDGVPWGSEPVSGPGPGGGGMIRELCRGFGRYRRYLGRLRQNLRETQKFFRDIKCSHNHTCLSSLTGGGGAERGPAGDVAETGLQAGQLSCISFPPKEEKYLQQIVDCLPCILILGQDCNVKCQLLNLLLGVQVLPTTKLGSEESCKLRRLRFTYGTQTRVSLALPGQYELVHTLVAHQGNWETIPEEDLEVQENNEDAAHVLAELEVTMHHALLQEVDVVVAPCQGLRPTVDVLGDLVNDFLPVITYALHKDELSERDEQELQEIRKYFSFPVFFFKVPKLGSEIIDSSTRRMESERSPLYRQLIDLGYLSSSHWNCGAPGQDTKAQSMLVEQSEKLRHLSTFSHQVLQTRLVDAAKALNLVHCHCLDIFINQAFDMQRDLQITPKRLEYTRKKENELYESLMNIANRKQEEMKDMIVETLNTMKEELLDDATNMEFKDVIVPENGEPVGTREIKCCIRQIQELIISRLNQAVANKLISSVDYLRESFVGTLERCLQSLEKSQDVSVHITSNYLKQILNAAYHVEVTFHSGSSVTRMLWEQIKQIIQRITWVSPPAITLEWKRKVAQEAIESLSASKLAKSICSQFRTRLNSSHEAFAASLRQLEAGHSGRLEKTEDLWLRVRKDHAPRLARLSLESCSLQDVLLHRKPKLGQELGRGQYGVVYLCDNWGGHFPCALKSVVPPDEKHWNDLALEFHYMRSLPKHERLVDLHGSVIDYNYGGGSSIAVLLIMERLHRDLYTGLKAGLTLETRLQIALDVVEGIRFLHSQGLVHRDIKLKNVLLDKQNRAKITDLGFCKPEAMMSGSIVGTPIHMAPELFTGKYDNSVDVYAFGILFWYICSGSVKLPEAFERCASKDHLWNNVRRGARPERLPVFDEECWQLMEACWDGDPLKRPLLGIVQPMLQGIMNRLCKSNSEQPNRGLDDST

[13] = target: PAK4 (human) (UniProt O96013); conditions: compound 0.5 µM; ATP 10 µM
[14] = target: PBK (human) (UniProt Q96KB5); conditions: compound 0.5 µM; ATP 10 µM
[15] = target: DAPK2 (human) (UniProt Q9UIK4); conditions: compound 0.5 µM; ATP 10 µM
[16] = target: MAP4K5 (human) (UniProt Q9Y4K4); conditions: compound 0.5 µM; ATP 10 µM
[17] = target: PRKG2 (human) (UniProt Q13237); conditions: compound 0.5 µM; ATP 10 µM
[18] = target: CDK5 CDK5R1 p35 (human) (UniProt Q00535+Q15078); conditions: compound 0.5 µM
[19] = target: PKN2 (human) (UniProt Q16513); conditions: compound 0.5 µM; ATP 10 µM
[20] = target: MAP3K7 TAB1 (human) (UniProt O43318+Q15750); conditions: compound 0.5 µM; ATP 10 µM
[21] = target: HIPK2 (human) (UniProt Q9H2X6); conditions: compound 0.5 µM; ATP 10 µM
[22] = target: ROCK2 (human) (UniProt O75116); conditions: compound 0.5 µM; ATP 10 µM
[23] = target: CAMK1 (human) (UniProt Q14012); conditions: compound 0.5 µM; ATP 10 µM
[24] = target: PRKCH (human) (UniProt P24723); conditions: compound 0.5 µM; ATP 10 µM
[25] = target: DYRK3 (human) (UniProt O43781); conditions: compound 0.5 µM; ATP 10 µM
[26] = target: KIT (human) (UniProt P10721); conditions: compound 0.5 µM; ATP 10 µM
[27] = target: CDK7 CCNH MNAT1 (human) (UniProt P50613+P51948+P51946); conditions: compound 0.5 µM
Sequence of CDK7 CCNH MNAT1 (human) (P50613 whole entry, looked up): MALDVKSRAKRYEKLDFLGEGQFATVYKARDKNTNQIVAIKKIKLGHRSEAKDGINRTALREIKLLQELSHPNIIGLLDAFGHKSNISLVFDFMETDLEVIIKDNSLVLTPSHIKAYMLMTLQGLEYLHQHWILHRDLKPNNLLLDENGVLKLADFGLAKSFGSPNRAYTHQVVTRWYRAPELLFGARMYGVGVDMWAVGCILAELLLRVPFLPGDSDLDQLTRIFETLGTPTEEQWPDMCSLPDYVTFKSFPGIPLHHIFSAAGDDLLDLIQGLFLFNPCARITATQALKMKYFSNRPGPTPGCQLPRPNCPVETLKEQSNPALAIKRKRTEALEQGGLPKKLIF
Sequence of CDK7 CCNH MNAT1 (human) (P51946 whole entry, looked up): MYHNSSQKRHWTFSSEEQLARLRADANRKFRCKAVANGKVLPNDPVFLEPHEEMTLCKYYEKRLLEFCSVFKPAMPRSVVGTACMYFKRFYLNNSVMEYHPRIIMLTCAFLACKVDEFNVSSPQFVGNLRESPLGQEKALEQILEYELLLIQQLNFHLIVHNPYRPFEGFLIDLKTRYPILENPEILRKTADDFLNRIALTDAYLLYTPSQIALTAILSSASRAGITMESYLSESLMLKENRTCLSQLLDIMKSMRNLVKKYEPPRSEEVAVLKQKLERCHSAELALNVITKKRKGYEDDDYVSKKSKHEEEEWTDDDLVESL
Sequence of CDK7 CCNH MNAT1 (human) (P51948 whole entry, looked up): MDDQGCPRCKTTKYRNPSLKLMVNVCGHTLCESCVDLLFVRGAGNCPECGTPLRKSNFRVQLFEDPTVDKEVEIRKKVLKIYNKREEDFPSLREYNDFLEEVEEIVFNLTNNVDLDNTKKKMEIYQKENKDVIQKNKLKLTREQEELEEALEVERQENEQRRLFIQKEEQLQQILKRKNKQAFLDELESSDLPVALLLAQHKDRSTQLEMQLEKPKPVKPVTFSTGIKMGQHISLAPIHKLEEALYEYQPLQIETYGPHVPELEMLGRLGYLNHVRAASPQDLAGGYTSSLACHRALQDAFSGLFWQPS

[28] = target: ACVRL1 (human) (UniProt P37023); conditions: compound 0.5 µM; ATP 10 µM
[29] = target: EPHA7 (human) (UniProt Q15375); conditions: compound 0.5 µM; ATP 10 µM
Sequence of EPHA7 (human) (Q15375 whole entry, looked up): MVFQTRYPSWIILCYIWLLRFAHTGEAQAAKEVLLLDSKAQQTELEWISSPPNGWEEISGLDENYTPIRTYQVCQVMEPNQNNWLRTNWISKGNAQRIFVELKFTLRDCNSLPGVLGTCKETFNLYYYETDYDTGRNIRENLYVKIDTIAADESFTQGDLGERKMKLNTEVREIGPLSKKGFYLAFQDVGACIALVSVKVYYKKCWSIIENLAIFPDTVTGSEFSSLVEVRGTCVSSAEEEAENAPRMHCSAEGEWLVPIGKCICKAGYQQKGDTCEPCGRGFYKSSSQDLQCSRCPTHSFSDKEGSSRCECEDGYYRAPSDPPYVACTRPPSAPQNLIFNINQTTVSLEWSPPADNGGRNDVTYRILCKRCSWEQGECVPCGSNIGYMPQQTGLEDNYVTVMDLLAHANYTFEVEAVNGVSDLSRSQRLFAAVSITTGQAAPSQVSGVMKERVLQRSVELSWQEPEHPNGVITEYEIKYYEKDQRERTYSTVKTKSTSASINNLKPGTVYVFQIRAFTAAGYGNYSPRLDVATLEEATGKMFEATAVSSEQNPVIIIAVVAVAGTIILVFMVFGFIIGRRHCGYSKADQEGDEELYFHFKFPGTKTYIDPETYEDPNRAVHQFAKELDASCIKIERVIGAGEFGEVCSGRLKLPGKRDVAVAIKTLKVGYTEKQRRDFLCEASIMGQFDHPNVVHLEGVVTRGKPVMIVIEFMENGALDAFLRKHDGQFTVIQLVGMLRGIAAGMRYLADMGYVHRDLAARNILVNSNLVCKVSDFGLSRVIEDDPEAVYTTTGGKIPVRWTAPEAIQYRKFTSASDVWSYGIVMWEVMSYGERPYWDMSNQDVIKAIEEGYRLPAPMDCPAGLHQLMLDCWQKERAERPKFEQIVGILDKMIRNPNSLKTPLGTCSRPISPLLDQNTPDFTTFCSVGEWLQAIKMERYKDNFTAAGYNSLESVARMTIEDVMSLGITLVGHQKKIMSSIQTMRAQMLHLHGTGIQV

[30] = target: FGR (human) (UniProt P09769); conditions: compound 0.5 µM; ATP 10 µM
Sequence of FGR (human) (P09769 whole entry, looked up): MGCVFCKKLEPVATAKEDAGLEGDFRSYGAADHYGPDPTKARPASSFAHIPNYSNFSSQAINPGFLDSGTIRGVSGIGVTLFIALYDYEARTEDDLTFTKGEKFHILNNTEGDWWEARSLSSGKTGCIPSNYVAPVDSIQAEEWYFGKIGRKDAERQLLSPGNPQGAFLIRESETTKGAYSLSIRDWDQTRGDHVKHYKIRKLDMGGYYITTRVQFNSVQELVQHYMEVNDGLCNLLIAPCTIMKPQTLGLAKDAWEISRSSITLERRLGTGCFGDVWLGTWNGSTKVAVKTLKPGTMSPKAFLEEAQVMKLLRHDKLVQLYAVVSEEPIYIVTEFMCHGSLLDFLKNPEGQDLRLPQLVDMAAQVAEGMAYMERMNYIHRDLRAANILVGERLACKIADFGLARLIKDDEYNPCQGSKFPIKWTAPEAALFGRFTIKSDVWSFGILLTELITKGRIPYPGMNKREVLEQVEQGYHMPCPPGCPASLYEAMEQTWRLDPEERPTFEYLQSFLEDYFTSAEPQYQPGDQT

[31] = target: PAK3 (human) (UniProt O75914); conditions: compound 0.5 µM; ATP 10 µM
[32] = target: VRK1 (human) (UniProt Q99986); conditions: compound 0.5 µM; ATP 10 µM
Sequence of VRK1 (human) (Q99986 whole entry, looked up): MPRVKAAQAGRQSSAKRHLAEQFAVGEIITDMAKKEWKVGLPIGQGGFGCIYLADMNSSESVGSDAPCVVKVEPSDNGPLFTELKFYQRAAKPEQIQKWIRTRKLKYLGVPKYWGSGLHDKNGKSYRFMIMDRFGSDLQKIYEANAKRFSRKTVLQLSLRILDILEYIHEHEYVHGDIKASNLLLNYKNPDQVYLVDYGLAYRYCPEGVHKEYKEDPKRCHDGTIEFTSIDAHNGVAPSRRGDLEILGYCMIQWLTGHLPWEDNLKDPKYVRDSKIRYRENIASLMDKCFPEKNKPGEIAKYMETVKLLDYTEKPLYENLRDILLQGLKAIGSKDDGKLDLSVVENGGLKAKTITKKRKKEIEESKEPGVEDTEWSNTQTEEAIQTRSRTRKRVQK

[33] = target: TTK (human) (UniProt P33981); conditions: compound 0.5 µM; ATP 10 µM
[34] = target: CDK9 CCNT1 (human) (UniProt P50750+O60563); conditions: compound 0.5 µM
[35] = target: LYN (human) (UniProt P07948); conditions: compound 0.5 µM; ATP 10 µM
[36] = target: MATK (human) (UniProt P42679); conditions: compound 0.5 µM; ATP 10 µM
[37] = target: PDGFRA (human) (UniProt P16234); conditions: compound 0.5 µM; ATP 10 µM
[38] = target: CDK9 CCNK (human) (UniProt O75909+P50750); conditions: compound 0.5 µM
[39] = target: CAMK2D (human) (UniProt Q13557); conditions: compound 0.5 µM; ATP 10 µM
Sequence of CAMK2D (human) (Q13557 whole entry, looked up): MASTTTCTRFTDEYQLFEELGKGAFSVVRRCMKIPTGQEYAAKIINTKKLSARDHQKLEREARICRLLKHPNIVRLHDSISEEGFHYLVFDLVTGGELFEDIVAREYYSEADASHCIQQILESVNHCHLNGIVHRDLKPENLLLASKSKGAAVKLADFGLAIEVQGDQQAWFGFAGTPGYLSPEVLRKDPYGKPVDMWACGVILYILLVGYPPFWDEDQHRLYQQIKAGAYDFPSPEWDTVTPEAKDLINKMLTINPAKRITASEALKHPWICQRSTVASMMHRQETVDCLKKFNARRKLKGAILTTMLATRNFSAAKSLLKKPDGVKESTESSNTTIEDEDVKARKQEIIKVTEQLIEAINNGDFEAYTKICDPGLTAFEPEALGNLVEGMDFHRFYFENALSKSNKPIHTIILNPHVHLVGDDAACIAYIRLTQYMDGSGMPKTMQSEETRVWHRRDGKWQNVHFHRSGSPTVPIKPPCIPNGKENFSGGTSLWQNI

[40] = target: PIM3 (human) (UniProt Q86V86); conditions: compound 0.5 µM; ATP 10 µM
[41] = target: PAK6 (human) (UniProt Q9NQU5); conditions: compound 0.5 µM; ATP 10 µM
Sequence of PAK6 (human) (Q9NQU5 whole entry, looked up): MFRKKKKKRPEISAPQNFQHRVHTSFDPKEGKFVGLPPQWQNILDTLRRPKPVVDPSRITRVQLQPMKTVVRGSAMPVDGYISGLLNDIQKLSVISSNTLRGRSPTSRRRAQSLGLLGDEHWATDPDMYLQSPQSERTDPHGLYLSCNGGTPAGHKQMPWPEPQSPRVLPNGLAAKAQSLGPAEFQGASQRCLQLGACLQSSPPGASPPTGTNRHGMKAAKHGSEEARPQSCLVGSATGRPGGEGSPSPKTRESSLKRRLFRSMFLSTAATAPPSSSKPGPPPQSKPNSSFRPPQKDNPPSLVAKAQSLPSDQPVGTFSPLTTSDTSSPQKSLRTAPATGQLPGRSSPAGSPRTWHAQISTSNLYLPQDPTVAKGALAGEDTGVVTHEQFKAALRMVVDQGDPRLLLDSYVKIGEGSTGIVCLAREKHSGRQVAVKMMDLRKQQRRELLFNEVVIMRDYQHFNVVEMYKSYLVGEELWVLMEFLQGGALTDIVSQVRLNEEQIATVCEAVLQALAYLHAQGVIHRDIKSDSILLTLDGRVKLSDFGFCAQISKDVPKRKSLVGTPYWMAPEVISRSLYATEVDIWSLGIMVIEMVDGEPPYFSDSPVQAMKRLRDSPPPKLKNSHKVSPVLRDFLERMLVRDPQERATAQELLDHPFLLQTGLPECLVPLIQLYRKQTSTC

For O=C(O)c1ccc2c3c1cccc3c(=O)n1c3ccccc3nc21, the residual activity [1] was 96.1%, the residual activity [2] was 23.7% and the residual activity [3] was 97.1%. For the same compound, the residual activity [4] was 97%, the residual activity [5] was 41.7% and the residual activity [6] was 28.3%. For the same compound, the residual activity [7] was 101%, the residual activity [8] was 99.3% and the residual activity [9] was 97.8%. It also gave a residual activity [10] of 99.1%, a residual activity [11] of 94% and a residual activity [12] of 103%. For the same compound, the residual activity [13] was 114%, the residual activity [14] was 97.5% and the residual activity [15] was 91.9%. The residual activity [16] was 47%, the residual activity [17] was 94.8% and the residual activity ([18]; ATP 10 µM) was 88%. It also gave a residual activity [19] of 97.9%, a residual activity [20] of 74.4% and a residual activity [21] of 101%. The residual activity [22] was 99%, the residual activity [23] was 101% and the residual activity [24] was 100%. The residual activity [25] was 92.3%, the residual activity [26] was 93.5% and the residual activity ([27]; ATP 10 µM) was 92.1%. The residual activity [28] was 103%, the residual activity [29] was 103% and the residual activity [30] was 98.9%. The residual activity [31] was 97.6%, the residual activity [32] was 103% and the residual activity [33] was 81%. The residual activity ([34]; ATP 10 µM) was 78.3%, the residual activity [35] was 101% and 99.4% and the residual activity [36] was 94%. For the same compound, the residual activity [37] was 94.4%, the residual activity ([38]; ATP 10 µM) was 76.4% and the residual activity [39] was 93.6%. It also gave a residual activity [40] of 4.96% and a residual activity [41] of 103%.
N#C/C(=C1/Nc2ccccc2S1)c1ccnc(NCCc2cccnc2)n1 showed a residual activity [1] of 99.6%, a residual activity [2] of 72.2% and a residual activity [3] of 98.9%. The residual activity [4] was 91.7%, the residual activity [5] was 91.2% and the residual activity [6] was 22.1%. The residual activity [7] was 94.3%, the residual activity [8] was 96.3% and the residual activity [9] was 104%. It also gave a residual activity [10] of 92.2%, a residual activity [11] of 93.1% and a residual activity [12] of 93.4%. It also gave a residual activity [13] of 91.3%, a residual activity [14] of 99.7% and a residual activity [15] of 119%. It also gave a residual activity [16] of 87.5%, a residual activity [17] of 98.1% and a residual activity ([18]; ATP 10 µM) of 97.2%. The residual activity [19] was 99.3%, the residual activity [20] was 91.5% and the residual activity [21] was 95.8%. The residual activity [22] was 83.6%, the residual activity [23] was 101% and the residual activity [24] was 98.7%. For the same compound, the residual activity [25] was 103%, the residual activity [26] was 93.6% and the residual activity ([27]; ATP 10 µM) was 93.2%. The residual activity [28] was 102%, the residual activity [29] was 99.4% and the residual activity [30] was 86.1%. It also gave a residual activity [31] of 102%, a residual activity [32] of 94.1% and a residual activity [33] of 80.9%. For the same compound, the residual activity ([34]; ATP 10 µM) was 23.3%, the residual activity [35] was 96.2% and 96.4% and the residual activity [36] was 89.8%. It also gave a residual activity [37] of 99%, a residual activity ([38]; ATP 10 µM) of 26.6% and a residual activity [39] of 89.3%. It also gave a residual activity [40] of 3.74% and a residual activity [41] of 97.6%.
In the case of O=c1[nH]c2ccccc2n1C1CCN(Cc2ccc(-c3nc4cc5[nH]cnc5cc4nc3-c3ccccc3)cc2)CC1, the residual activity [1] is reported as 105%, the residual activity [2] is reported as 94.6% and the residual activity [3] is reported as 103%. The residual activity [4] was 110%, the residual activity [5] was 111% and the residual activity [6] was 94.3%. The residual activity [7] was 84.3%, the residual activity [8] was 98.2% and the residual activity [9] was 102%. For the same compound, the residual activity [10] was 92.2%, the residual activity [11] was 101% and the residual activity [12] was 104%. The residual activity [13] was 102%, the residual activity [14] was 103% and the residual activity [15] was 99%. It also gave a residual activity [16] of 91.9%, a residual activity [17] of 96.8% and a residual activity [18] of 91.9%. The residual activity [19] was 73.2%, the residual activity [20] was 84.1% and the residual activity [21] was 110%. For the same compound, the residual activity [22] was 109%, the residual activity [23] was 95.1% and the residual activity [24] was 101%. It also gave a residual activity [25] of 101%, a residual activity [26] of 91.7% and a residual activity [27] of 99.1%. It also gave a residual activity [28] of 105%, a residual activity [29] of 109% and a residual activity [30] of 95.7%. For the same compound, the residual activity [31] was 104%, the residual activity [32] was 98.3% and the residual activity [33] was 104%. For the same compound, the residual activity [34] was 93.2%, the residual activity [35] was 102% and 116% and the residual activity [36] was 102%. The residual activity [37] was 98.2%, the residual activity [38] was 108% and the residual activity [39] was 97.7%. It also gave a residual activity [40] of 106% and a residual activity [41] of 109%.
